Results reported in patent US20030203404A1, “Bioluminescence resonance energy transfer( bret) system with broad spectral resolution between donor and acceptor emission wavelengths and its use” (priority 1999, published 2003).
Where two headings read alike, the source gives them in different places.

Experiments:
[1] = Coelenterazine 400a stock solution stability (luminescence with CHO cells expressing Rluc, BRETCount); type: physicochemical
Method: Coelenterazine stability: Three different stock solutions of coelenterazine 400a (dissolved in anhydrous ethanol), prepared at different times, were tested using the BRETCount. CHO cells were transiently transfected with pcDNA3.1-Rluc only. Forty-eight hours later, 50 000 cells in complete BRET buffer were distributed in wells (96-well white Optiplate). Coelenterazine 400a from the various stocks were then added to start the bioluminescent reaction. […] A reduction of 22% is observed for the older stock (made Feb. 19, 1999) compared to a stock freshly made (Aug. 6, 1999). […].
FIG. 9 represents the same bioluminescent reactions as in FIG. 8 but at t=5 min after addition of the coelenterazines. In this case no significant difference was observed between the various coelenterazine stocks.
Coel400a stored for a longer period of time (6 months), does show a loss of potential but it remains acceptable and workable for the BRET system.

[2] = test system: HeLa cells transfected with the GFP1:Caspase-3:Rluc sensor; assay: BRET apoptosis sensor assay; type: cell-based; settings: staurosporine 1 μM, 5 hours
Method: PGFP1:caspase-3:Rluc DNAs and the original plasmid pGFP1::Rluc (without the caspase-3 site) were transfected into HeLa cell using LipofectAMINE (BRL/Gibco-Life technologies) in 100 mm dishes and 8 μg of plasmid DNA as described in the manufacturer's protocol. Twenty-four hours post-transfection transfected cells were harvested and distributed into 96-well microtiterplate (white Optiplate from Packard) at a density of 30 000 cells per well. […] Cells were incubated for 5 hours at 37° C. After this period, 50 μl of BRET buffer (PBS Ca^2+/Mg^2++glucose without aprotinin) and 50 μl of DeepBlueC (20 μM) were added to start the bioluminescence reaction. Total assay volume was 200 μl. Light emissions were detected using the BRETCount (read length of 1 sec. for each filter, SPC mode, temperature 25° C.).

[3] = biological target: V2-R (Homo sapiens, UniProt P30518); settings: AVP 50 nM, 20 minutes
Method: BRET assays: HEK293 cell line were transiently co-transfected using the donor and acceptor fusion construct DNAs and LipofectAMINE 2000 (Life Technologies) in 100 mm dishes as described in the manufacturer's protocol. For the transfections, a DNA ratio of 4 μg:46 μg (donor fusion construct: acceptor fusion construct) was used. The donor fusion constructs were the V2-R:Rluc (h) fusion constructs and the acceptor fusion construct was either the pcDNA3.1hyg/GFP1:β-arrestin2 or the pcDNA3.1hyg/β-arrestin2:GFP1. […] Fifty thousand transfected cells per well were added to white 96-well plates (Optiplate, Packard Instrument Company). […] Cells were then incubated for 20 minutes at room temperature in a total volume of 37.5 μl. After the incubation period, 12.5 μl of DeepBlueC at 20 μM (also called Coel400a) was added in each well (final concentration of 5 μM). Final assay volume was 50 μl. Donor and acceptor light outputs were quantified with the Fusion microtiterplate analyzer (Packard Instrument Company) using the following instrument setting:
Read length: 1 sec per well per filter.
Results represent the mean+/−SEM of quadruplicate wells. […] In all cases, background levels (wells with only DBC in PBS+) were subtracted.

[4] = biological target: V2 receptor (Homo sapiens, UniProt P30518); settings: saturating dose, V2-Rluc + β-arrestin2-GFP, FIG. 22
Method: The Rluc (BDP) was fused to the C-terminus of the GPCR and the GFP (FAM) was fused to the C-terminus of β-arrestin. Therefore, shortly after ligand binding (5-30 minutes) the BRET ratio should increase due to binding of β-arrestin to the GPCR, which brings the GFP in proximity to Rluc.
HEK293 cell line were transiently transfected using the DNA constructs and LipofectAMINE™ 2000 (BRL/Gibco) in 100 mm dishes as described in the manufacturer's protocol. […] Bioluminescent reactions were analysed using the BRETCount with appropriate filters.
Transfected cells were added (50 000 cells (in BRET buffer) per well) to the wells in white 96-well plates (Optiplate, Packard Instrument). […] In the other half, BRET buffer, alone, was added. Cells were then incubated for 10-20 minutes at room temperature before adding the coel400a. The analysis was performed at 25° C., integration time 2 sec per wavelength in luminescence mode. The filters used were: for Rluc emission 410DF80 (from Omega); for GFP D515/50M (from Chroma). Coel400a, at a working concentration of 40 μM (final 5 μM), was added to each well to start the bioluminescent reaction. The final reaction volume was 50 μl. Assays were done in quadruplicate.
For all fusion constructs, a 6 amino acid linker was inserted, between the Rluc or GFP and the receptor (β2, β3 or V2) or β-arrestin2. […]

With `O=c1c(Cc2ccccc2)nc2c(Cc3ccccc3)[nH]c(-c3ccccc3)cn1-2` [Coelenterazine 400a, phenylcoelenterazine] the “reduction of luminescent signal immediately after addition of the substrate” value ([1]; stock in anhydrous ethanol made Feb. 19, 1999 compared to stock freshly made (Aug. 6, 1999)) was 22% and the “luminescence reduction immediately after addition of the substrate” value ([1]; stock in anhydrous ethanol made Jul. 22, 1999 compared to stock freshly made (Aug. 6, 1999)) was “did not demonstrate significant luminescence reduction”.
For `CN[C@@H]1C[C@H]2O[C@@](C)([C@@H]1OC)n1c3ccccc3c3c4c(c5c6ccccc6n2c5c31)C(=O)NC4` [staurosporine], the “BRET ratio change (decrease)” value ([2]; cells transfected with pGFP1:caspase-3:Rluc, time zero) was 0.72 unit and the “change in BRET ratio” value ([2]; cells transfected with pGFP::Rluc (without the caspase-3 site)) was “No change”.
With Arg^8-vasopressin [AVP] the “BRET signal in presence of AVP” value ([3]; V2-R:Rluc + GFP1:β-arrestin2, 10 min after DeepBlueC) was 0.129, the “BRET signal in presence of AVP” value ([3]; V2-R:Rluc + β-arrestin2:GFP1, 10 min after DeepBlueC) was 0.087 and the “BRET ratio in the presence of the agonist” value [4] was “increased”.
